Key:
[1] = Singlet oxygen generation assay (p-nitrosodimethylaniline-based ROS assay) after UVA irradiation; format: physicochemical; details: phosphate-buffered aqueous solution pH 7.4, UVA irradiation 0–15 J/cm^2
Description: It has been reported that singlet oxygen promotes the peroxidation of skin surface lipids, resulting in the induction of skin inflammation. Thus, we measured the irradiation intensity-dependent generation of singlet oxygen by MK-4, MKH-DMG, and MKH-SUC in phosphate-buffered aqueous solution after UVA irradiation using a p-nitrosodimethylaniline-based ROS assay (Figure 4).
MK-4 and MKH derivatives were dissolved in a phosphate buffer (NaPB, pH 7.4) containing 0.2% polyoxyethylene hydrogenated castor oil 40 (HCO 40, obtained as a gift sample from Nikko Chemicals Co., Ltd., Osaka, Japan), 2% dimethyl sulfoxide, and 0.1% glycerol. The solutions were treated according to the singlet oxygen assay method (The Japanese Center for the Validation of Alternative Methods, JaCVAM) and irradiated with UVA light from a CL-1000L UV Crosslinker (UVP, Upland, CA, USA). Absorbance was measured using an Infinite M200 PRO (Tecan Life Sciences, Zurich, Switzerland).

HaCaT cells [2] = assay: Intracellular MKO and MK-4 levels after treatment with MK-4 and MKH derivatives (MKH delivery), LC-MS/MS; format: cell-based, Human; details: 5 µM compound, intracellular MK-4, mean ± SD (n = 3)
Description: The potential of MKH derivatives and MK-4 as dermal delivery systems of MKH were assessed by measuring intracellular MKH levels. However, accurate measurement of MKH is difficult because MKH is readily oxidized to MK-4. […] Thus, MKO levels in HaCaT cells can reflect the amount of MKH delivered into the cell and subsequently converted in the carboxylation of VKDP. In addition, MK-4 level in cells after MKH prodrugs treatment indicates the oxidative product of MKH. In this study, the intracellular concentration of MKO and MK-4 in HaCaT cells over time after treatment with MK-4, MKH-DMG, or MKH-SUC (5 μM) was determined by LC-MS/MS (Figure 7). HaCaT cells were seeded at 5.0 × 10^4 cells/well in 24-well plates and allowed to attach for 48 h. Cells were cultured in medium containing 5 μM MK-4, MKH-DMG, or MKH-SUC, then medium was removed and cells were washed twice with PBS. Cells were collected in 500 μL of PBS and sonicated. Cell homogenates were combined with an equal volume of methanol and three times volume of n-hexane, vortexed for 2 min, and centrifuged at 1750× g for 10 min. […] The residue was reconstituted with 20 μL of methanol, and subjected to LC-MS/MS, as described below. The protein concentration of the cell homogenate was determined using a BCA protein assay kit (Thermo Fisher Scientific, Waltham, MA, USA). […]

HaCaT cells [3] = assay: Intracellular MKO levels after treatment with sunlight-irradiated MK-4 and MKH derivatives; format: cell-based, Human; details: 48 h treatment, compound irradiated with sunlight 12,000 lx for 3 h
Description: To confirm whether MKH prodrugs could successfully deliver MKH to dermal cells under sunlight, the intracellular level of MKO in HaCaT cells was determined following administration of MK-4 and MKH derivatives in the presence or absence of artificial sunlight irradiation. […] MKO levels were increased after administration of MKH-DMG and MKH-SUC in sunlight, but these were approximately 60% that of the cells treated with their respective compounds in shading conditions.
HaCaT cells were seeded at 5.0 × 10^4 cells/well in 24-well plates and allowed to attach for 48 h. Cells were cultured in medium containing 5 µM MK-4, MKH-DMG, or MKH-SUC, then medium was removed and cells were washed twice with PBS. Cells were collected in 500 µL of PBS and sonicated. Cell homogenates were combined with an equal volume of methanol and three times volume of n-hexane, vortexed for 2 min, and centrifuged at 1750× g for 10 min. The organic layer was evaporated under N2 gas. The residue was reconstituted with 20 μL of methanol, and subjected to LC-MS/MS, as described below. The protein concentration of the cell homogenate was determined using a BCA protein assay kit (Thermo Fisher Scientific, Waltham, MA, USA).
Solutions of 200 µM MK-4, MKH-DMG, or MKH-SUC in ethanol were irradiated with artificial sunlight for 3 h at 12,000 lx in quartz cells. After irradiation, ethanol was evaporated under N2 gas. […]

- AUCMK-4 (0–72 h) (HaCaT cells [2]): 5.628 ± 0.698 nmol·h/mg of Protein
- intracellular MKO level after sunlight irradiation compared to shade (HaCaT cells [3]): seriously reduced
Compound: CC(C)=CCC/C(C)=C/CC/C(C)=C/CC/C(C)=C/CC1=C(C)C(=O)c2ccccc2C1=O [MK-4, menaquinone-4, reference compound]
- singlet oxygen generation [1]: increased formation of singlet oxygen in an irradiation energy-dependent manner

From article PMC6566782, “Prodrugs for Skin Delivery of Menahydroquinone-4, an Active Form of Vitamin K2(20), Could Overcome the Photoinstability and Phototoxicity of Vitamin K2(20)” (International Journal of Molecular Sciences, 2019)
